Experiments:
Arabidopsis thaliana = experiment: Phytohormone detection in Arabidopsis thaliana leaves treated with short peptide (LC-MS/MS); assay type: in vivo; details: 0.01 mg/mL; for ABA content / JA content: compared with GFP control group
Protocol: A synthetic short peptide of GSS1-PI with the corresponding concentration and mass was weighed and dissolved in 0.1% DMSO to obtain a 0.01 mg/mL treatment solution. A wild-type Arabidopsis thaliana plant of about four weeks old was taken, two cotyledons were collected and mechanically damaged to obtain three small holes, 2 μL of the GSS1-PI treatment solution was added dropwise into each small hole, while the control group was a solution of the same concentration prepared by synthesizing an unrelated short peptide GFP group (GFP-28aa: […], SEQ ID NO: 20) of the same length. After 24 h and 48 h of treatment, approximately 0.2 g of Arabidopsis thaliana leaves were collected, and each treatment had three biological replicates. The leaves were quickly placed in liquid nitrogen and stored in a −80° C. ultra-low temperature refrigerator for subsequent phytohormone group detection.
• a. The cryopreserved biological samples were ground with a grinder (30 Hz, 1 min) until they were in a powder form. • b. 50 mg of the ground sample was weighed and added with 10 μL of an internal standard mixed solution with a concentration of 100 ng/ml and 1 mL of an extractant including methanol/water/formic acid (15:4:1, v/v/v), and mixed well. • c. After vortexing for 10 min, a resulting mixture was centrifuged at 4° C. and 12,000 r/min for 5 min, and a resulting supernatant was transferred to a new centrifuge tube for concentration. • d. After concentration, the concentrated solution was reconstituted with 100 μL of 80% methanol/water solution, the reconstituted solution was filtered through a 0.22 μm filter, and the filtrate was placed in a sampling bottle for LC-MS/MS analysis.
The data acquisition instrument system mainly included ultra-performance liquid chromatography (UPLC) (ExionLC™ AD, //sciex.com.cn/) and tandem mass spectrometry (MS/MS) (QTRAP® 6500+, //sciex.com.cn/).
Liquid phase conditions mainly included: • 1) Chromatographic column: Waters ACQUITY UPLC HSS T3 C18 column (1.8 μm, 100 mm×2.1 mm i.d.); • 2) Mobile phase: phase A, ultrapure water (added with 0.04% acetic acid); phase B, acetonitrile (added with 0.04% acetic acid); • 3) Gradient elution program: 0 min A/B at 95:5 (V/V), 1.0 min A/B at 95:5 (V/V), 8.0 min at 5:95 (V/V), 9.0 min at 5:95 (V/V), 9.1 min at 95:5 (V/V), 12.0 min at 95:5 (V/V); • 4) Flow rate: 0.35 mL/min; column temperature: 40° C.; injection volume: 2 μL.
Electrospray ionization (ESI) ion source temperature was 550° C., the mass spectrometer voltage in the positive ion mode was 5,500 V, the mass spectrometer voltage in the negative ion mode was-4,500 V, and the curtain gas (CUR) was 35 psi. In the Q-Trap 6500+, each ion transition was scanned based on optimized declustering potential (DP) and collision energy (CE).
The quantificative analysis was accomplished using the multiple reaction monitoring mode (MRM, as shown below) of triple quadrupole mass spectrometry. […] And the non-target ion interference was eliminated, so that the quantification was more accurate and reproducible. After obtaining the mass spectrometry data of different samples, the chromatographic peaks of all target substances were integrated and quantitatively analyzed through the standard curve.

[1] = test system: Plutella xylostella larvae; experiment: Plutella xylostella larvae fed on Arabidopsis thaliana treated with short peptide; assay type: in vivo; details: third-instar larvae fed on treated Arabidopsis thaliana for 3 days
Text: (5) Biological Experimental Observation after GSS-PI Short Peptide Treatment with Arabidopsis thaliana. • 1) 60 newly molted third-instar larvae fed on artificial feed were divided into 3 groups, and 20 larvae in each group were fed on Arabidopsis thaliana plants treated with GSS-P1 short peptide or GFP control short peptide; • 2) In order to prevent plants from being damaged mechanically or influenced by external factors, a simple interactive biological observation device for insect-plant interaction was used to eliminate potential interference factors; • 3) After 3 days, the simple interactive biological observation device was opened, and the number of larvae (4th instar larvae) was observed and counted, the number of larvae surviving was recorded, and divided by the initial number of 20 larvae to obtain the daily survival rate of larvae.

Sequence: PDYKQKLRDSKAWESLETIGIPLDADVM (insect-derived short peptide) [GSS1-PI]
- ABA content (Arabidopsis thaliana; 24 h treatment): increased significantly
- JA content (Arabidopsis thaliana; 24 h treatment): increased significantly
- ABA content (Arabidopsis thaliana; 48 h treatment): upward trend but no significant difference
- JA content (Arabidopsis thaliana; 48 h treatment): downward trend
- SA content (Arabidopsis thaliana; before and after treatment): no significant change
- mortality rate of larvae [1]: about 70%

Reference: patent US20250197461A1, “Insect-derived short peptide for improving abscisic acid (ABA) content in cruciferous plant” (Gannan Normal University, priority 2023, published 2025)
